Assay results reported in the C3SDB collision cross section collection.

details: [M+H]+; instrument: DT; stepped-field

| Compound | collision cross section (N2) |
| --- | --- |
| CCCCCCCCCCCCCCCCCCCC(=O)OC[C@@H](O)COP(=O)([O-])OCC[N+](C)(C)C [LPC(20:0)] | 248.6 Å² |

same assay, conditions: [M+Na]+; instrument: DT; stepped-field

| Compound | collision cross section (N2) |
| --- | --- |
| CCCCCCCCCCCCCCCCCCCC(=O)OC[C@@H](O)COP(=O)([O-])OCC[N+](C)(C)C [LPC(20:0)] | 251.13 Å² |

details: [M+H]+; instrument: TW; Major Mix IMS/Tof Calibration Kit (Waters)

| Compound | collision cross section (N2) |
| --- | --- |
| CC(C)CC(N(C)C)C1(c2ccc(Cl)cc2)CCC1 (centres undefined) [Sibutramine] | 168 Å² |
| CCCN1C[C@H](CSC)C[C@@H]2c3cccc4[nH]cc(c34)C[C@H]21 [Pergolide] | 177.9 Å² |
| CN1CC[C@]23c4c5ccc(O)c4O[C@H]2C(=O)CC[C@H]3[C@H]1C5 [Hydromorphone] | 163.9 Å² |
| Cc1nnc2n1-c1ccc(Cl)cc1C(c1ccccc1)=NC2 [Alprazolam] | 171.5 Å² |
| CNC1=Nc2ccc(Cl)cc2C(c2ccccc2)=[N+]([O-])C1 [Chlordiazepoxide] | 170.4 Å² |
| O=C(O)C(c1ccccc1)C1CCCCN1 (centres undefined) [Ritalinic acid] | 150 Å² |
| Cc1ccc(-c2nc3ccc(C)cn3c2CC(=O)N(C)C)cc1 [Zolpidem] | 177.2 Å² |
| CC(C)(C)NCC(O)c1cc(Cl)c(N)c(Cl)c1 (centres undefined) [Clenbuterol] | 165.6 Å² |
| O=C1CN=C(c2ccccc2)c2cc([N+](=O)[O-])ccc2N1 [Nitrazepam] | 163.6 Å² |
| Cc1ccc(-c2nc3ccc(C(=O)O)cn3c2CC(=O)N(C)C)cc1 [Zolpidem-M 2] | 181.4 Å² |
| CCCCN1CCCCC1C(=O)Nc1c(C)cccc1C (centres undefined) [Bupivacaine] | 173.1 Å² |
| CN1[C@@H]2CC[C@H]1C[C@@H](OC(=O)C(CO)c1ccccc1)C2 (some centres undefined) [Atropine] | 171.5 Å² |
| CCCC(=O)Nc1ccc(OCC(O)CNC(C)C)c(C(C)=O)c1 (centres undefined) [Acebutolol] | 190.2 Å² |
| CCN(CC)C(C)C(=O)c1ccccc1 (centres undefined) [Amfepramone] | 148 Å² |
| CN1CC[C@]23c4c5ccc(O)c4O[C@H]2C(=O)CC[C@@]3(O)[C@H]1C5 [Oxymorphone] | 164.6 Å² |
| CCC(=O)O[C@](Cc1ccccc1)(c1ccccc1)[C@H](C)CN(C)C [Dextropropoxyphene] | 180.7 Å² |
| CN1CC[C@]23CCCC[C@H]2[C@H]1Cc1ccc(O)cc13 [Levorphanol] | 161.7 Å² |
| NC1CC1c1ccccc1 (centres undefined) [Tranylcypromine] | 127.6 Å² |
| CN1CC[C@]23c4c5ccc(O)c4O[C@H]2[C@@H](O)CC[C@H]3[C@H]1C5 [Dihydromorphine] | 163.6 Å² |

| Compound | collision cross section (N2) |
| --- | --- |
| CCNC(C)C(=O)c1ccccc1 (centres undefined) [Ethcathinone] | 139.2 Å² |
| O=C1CN=C(c2ccccc2Cl)c2cc([N+](=O)[O-])ccc2N1 [Clonazepam] | 168.2 Å² |
| CC(NC(C)(C)C)C(=O)c1cccc(Cl)c1 (centres undefined) [Bupropion] | 157.8 Å² |
| CN1C(=O)CN=C(c2ccccc2F)c2cc([N+](=O)[O-])ccc21 [Flunitrazepam] | 168.6 Å² |
| CCC(=O)C1(c2cccc(O)c2)CCN(C)CC1 [Ketobemidone] | 159.7 Å² |
| Cc1ccc(-c2cc(C(F)(F)F)nn2-c2ccc(S(N)(=O)=O)cc2)cc1 [Celecoxib] | 186.4 Å² |
| Cc1nnc2n1-c1ccc(Cl)cc1C(c1ccccc1Cl)=NC2 [Triazolam] | 172.4 Å² |
| C[C@]12CCC(=O)C=C1CC[C@@H]1[C@@H]2CC[C@@]2(C)[C@H]1CC[C@]2(C)O [Methyltestosterone] | 176 Å² |
| CCOC(=O)[C@H]1[C@@H](OC(=O)c2ccccc2)C[C@@H]2CC[C@H]1N2C [Cocaine-M Cocaethylene] | 173.5 Å² |
| COc1cc(CCN)c(OC)cc1Br [2C-B] | 155.6 Å² |
| CN1C(=O)C(O)N=C(c2ccccc2)c2cc(Cl)ccc21 (centres undefined) [Temazepam] | 166.1 Å² |
| COc1ccccc1OCCNCC(O)COc1cccc2[nH]c3ccccc3c12 (centres undefined) [Carvedilol] | 190 Å² |
| CN(C)CC1CCCCC1(O)c1cccc(O)c1 (centres undefined) [Tramadol-M O-desmethyl] | 157.4 Å² |
| CCN(CC)[C@@H](C)[C@H](O)c1ccccc1 [N-diethylnorephedrine] | 144.6 Å² |
| COc1ccc2c3c1O[C@H]1[C@@H](O)C=C[C@H]4[C@@H](C2)NCC[C@@]341 [Norcodeine] | 166.1 Å² |
| NC(=O)N1c2ccccc2C=Cc2ccccc21 [Carbamazepine] | 150.3 Å² |
| O=C1CC2(CCCC2)CC(=O)N1CCCCN1CCN(c2ncccn2)CC1 [Buspirone] | 199.3 Å² |
| CCN1CCCC1CNC(=O)c1cc(S(=O)(=O)CC)c(N)cc1OC (centres undefined) [Amisulpride] | 193.1 Å² |
| CNC(C)C(=O)c1ccc(C)cc1 (centres undefined) [Mephedrone] | 143.1 Å² |

Now from value to compound:

| collision cross section (N2) | Compound |
| --- | --- |
| 243 Å² | CC(C)(O)c1ccccc1CC[C@@H](SCC1(CC(=O)O)CC1)c1cccc(/C=C/c2ccc3ccc(Cl)cc3n2)c1 [Montelukast] |
| 166.7 Å² | CN1CCN(C(c2ccccc2)c2ccccc2)CC1 [Cyclizine] |
| 152.1 Å² | Cc1cc(C(=O)NNCc2ccccc2)no1 [Isocarboxazid] |
| 161.7 Å² | C=CCOc1ccccc1OCC(O)CNC(C)C (centres undefined) [Oxprenolol] |
| 197.1 Å² | CC/C(=C(\c1ccccc1)c1ccc(OCCN(C)C)cc1)c1ccccc1 [Tamoxifen] |
| 178.1 Å² | CC(CCc1ccccc1)NCC(O)c1ccc(O)c(C(N)=O)c1 (centres undefined) [Labetalol] |
| 175.7 Å² | CN1CCN(C2=Nc3ccccc3Oc3ccc(Cl)cc32)CC1 [Loxapine] |
| 132.2 Å² | CC(=O)Nc1ccc(O)cc1 [Paracetamol] |
| 164.2 Å² | CNCCCC1(C2=CC=CC=C32)CC[C@H]3C4=CC=CC=C14 [Maprotiline] |
| 174 Å² | CCOc1ccccc1O[C@H](c1ccccc1)[C@H]1CNCCO1 [Reboxetine] |
| 161.9 Å² | CN(C)CCOC(C)(c1ccccc1)c1ccccn1 (centres undefined) [Doxylamine] |
| 171.7 Å² | Cc1nccn1CC1CCc2c(c3ccccc3n2C)C1=O (centres undefined) [Ondansetron] |
| 165.9 Å² | CNCC/C=C1/c2ccccc2Sc2ccc(Cl)cc21 [Chlorprothixene-M N-desmethyl] |
| 202.9 Å² | COc1cc2nc(N3CCN(C(=O)C4COc5ccccc5O4)CC3)nc(N)c2cc1OC (centres undefined) [Doxazosin] |
| 148.6 Å² | NC(=O)c1cn(Cc2c(F)cccc2F)nn1 [Rufinamide] |
| 157.7 Å² | O=C(O)Cc1ccccc1Nc1c(Cl)cccc1Cl [Diclofenac] |
| 196.2 Å² | CN(Cc1cnc2nc(N)nc(N)c2n1)c1ccc(C(=O)N[C@@H](CCC(=O)O)C(=O)O)cc1 [Methotrexate] |
| 163.5 Å² | CC1CCN(CCCC(=O)c2ccc(F)cc2)CC1 [Melperone] |
| 194 Å² | OCCN1CCN(CC/C=C2/c3ccccc3Sc3ccc(Cl)cc32)CC1 [Zuclopenthixol] |

| collision cross section (N2) | Compound |
| --- | --- |
| 165.3 Å² | COc1ncnc(NS(=O)(=O)c2ccc(N)cc2)c1OC [Sulfadoxine] |
| 168.7 Å² | CNCCCN1c2ccccc2Sc2ccc(Cl)cc21 [Chlorpromazine-M norl] |
| 163.7 Å² | CC(CN1c2ccccc2Sc2ccccc21)N(C)C (centres undefined) [Promethazine] |
| 153.4 Å² | COc1ccc2[nH]cc(CCNC(C)=O)c2c1 [Melatonin] |
| 159.1 Å² | Cc1cccc(C)c1NC(=O)C1CCCCN1C (centres undefined) [Mepivacaine] |
| 175.4 Å² | CN1CCC(=C2c3ccccc3CCc3sccc32)CC1 [Pizotifen] |
| 163.8 Å² | CCCN(CCC)CCc1cccc2c1CC(=O)N2 [Ropinirole] |
| 149.4 Å² | Clc1ccc2nsnc2c1NC1=NCCN1 [Tizanidine] |
| 180.2 Å² | CCN(CCO)CCCC(C)Nc1ccnc2cc(Cl)ccc12 (centres undefined) [Hydroxychloroquine] |
| 151.2 Å² | Nc1nnc(-c2cccc(Cl)c2Cl)c(N)n1 [Lamotrigine] |
| 159.1 Å² | CC(C)NCC(O)COc1cccc2[nH]ccc12 (centres undefined) [Pindolol] |
| 186.2 Å² | OCCN1CCN(C(c2ccccc2)c2ccc(Cl)cc2)CC1 (centres undefined) [Cetirizine-M O-desalkyl] |
| 194.1 Å² | NC(=O)C1(N2CCCCC2)CCN(CCCC(=O)c2ccc(F)cc2)CC1 [Pipamperone] |
| 209.9 Å² | Cc1nc2n(c(=O)c1CCN1CCC(c3noc4cc(F)ccc34)CC1)CCCC2O (centres undefined) [Risperidone-M 9-hydroxy] |
| 186.3 Å² | COc1ccc([C@@H]2Sc3ccccc3N(CCN(C)C)C(=O)[C@@H]2O)cc1 [Diltiazem-M deacetyl] |
| 180.1 Å² | CN(C)CCCC1(c2ccc(F)cc2)OCc2cc(C#N)ccc21 (centres undefined) [Citalopram] |
| 174.3 Å² | CNS(=O)(=O)CCc1ccc2[nH]cc(C3CCN(C)CC3)c2c1 [Naratriptan] |
| 192.9 Å² | OCCOCCN1CCN(C2=Nc3ccccc3Sc3ccccc32)CC1 [Quetiapine] |
| 199.4 Å² | OCCN1CCN(CC/C=C2\c3ccccc3Sc3ccc(C(F)(F)F)cc32)CC1 [Flupentixol] |

details: [M+H]+; instrument: DT; single field, calibrated with Agilent tune mix (Agilent)

| Compound | collision cross section (N2) |
| --- | --- |
| CCCCCCCCCCCCCCCCCCCC(=O)OC[C@@H](O)COP(=O)([O-])OCC[N+](C)(C)C [LPC(20:0)] | 243.9 Å² |
